The values below come from ChEMBL document CHEMBL1129118, “New heteroaryl-spaced phosphono -amino acids are competitive NMDA antagonists with analgesic activity” (Bioorg Med Chem Lett, 1996).

One may read the Ki as the dissociation constant of the complex between target and ligand, obtained from inhibition or displacement. Read a high Ki as weaker binding. One may read the ED50 as the midpoint of the dose-response relation. The low end stands for greater potency, the high end for weaker potency.

One assay addresses Glutamate NMDA receptor. Kind of assay: Binding affinity to the glutamate site of the NMDA receptor was measured by competitive inhibition of binding of [3H]-CGP- 39653 to rat or porcine cerebral cortex membranes. The class given is cell membranes, Membrane.
For assay [1], the system named is Mus musculus. Kind of assay: Analgesic activity was evaluated in the mouse formalin test (20 uM/Kg 1% formaldehyde injected into a hind paw, licking of the paw scored 15-30 min after formalin injection). The class given is functional.
In assay [2] the test system is Mus musculus. Kind of assay: Tested for its analgesic activity in the mouse formalin test (20 umol/kg 1 % formaldehyde injected into a hind paw, licking of the paw scored 15-30 min after formalin injection). The class given is functional.
The subject of assay [3] is Mus musculus. Kind of assay: Analgesic activity was evaluated in the mouse formalin test (20 umol/kg 1 % formaldehyde injected into a hind paw, licking of the paw scored 15-30 min after formalin injection). The format is functional.

Molecule `N[C@H](Cc1nc2ccccc2cc1CP(=O)(O)O)C(=O)O` had an inhibition constant Ki on Glutamate NMDA receptor of 123 nM.

With `N[C@H](Cc1nc2cccc(Cl)c2cc1CP(=O)(O)O)C(=O)O`, at Glutamate NMDA receptor, the Ki is 120 nM.

`Cc1ccc2cc(CP(=O)(O)O)c(C[C@@H](N)C(=O)O)nc2c1` came in with a Ki on Glutamate NMDA receptor of 54 nM.

Take `N[C@H](Cc1nc2ccc(F)cc2cc1CP(=O)(O)O)C(=O)O`: the inhibitory constant (Ki) on Glutamate NMDA receptor was found to be 140 nM.

As for `N[C@H](Cc1nc2ccncc2cc1CP(=O)(O)O)C(=O)O`, affinity on Glutamate NMDA receptor was put at a Ki of 722 nM.

`NC(Cc1cc2ccccc2cc1CP(=O)(O)O)C(=O)O` (stereo unspecified) displayed a Ki at Glutamate NMDA receptor of 140 nM.

For `N[C@H](Cc1nc2ccc(Cl)cc2cc1CP(=O)(O)O)C(=O)O`, the 50% effect level in the assay on Mus musculus [1] (ED50) was put at a dose of 200 µmol/kg. This molecule displayed a Ki at Glutamate NMDA receptor of 57 nM.

The molecule `CCc1cc2cc(CP(=O)(O)O)c(C[C@@H](N)C(=O)O)nc2cc1CC` displayed an inhibition constant Ki on Glutamate NMDA receptor of 4 nM.

As for `NC(Cc1oc2ccccc2c1CP(=O)(O)O)C(=O)O` (stereo unspecified), the Ki on Glutamate NMDA receptor was 2700 nM.

Turning to `NC(Cc1nc2cc(Cl)c(Cl)cc2nc1CP(=O)(O)O)C(=O)O` (stereo unspecified), the Ki on Glutamate NMDA receptor came out at 3.4 nM.

The molecule `N[C@H](Cc1nc2cc(Cl)c(Cl)cc2cc1CP(=O)(O)O)C(=O)O` yielded a Ki on Glutamate NMDA receptor of 5 nM.

At Glutamate NMDA receptor, `COc1cc2cc(CP(=O)(O)O)c(C[C@@H](N)C(=O)O)nc2cc1OC` had a Ki of 950 nM.

Molecule `CCC/C(=C\C(N)C(=O)O)CP(=O)(O)O` (stereo unspecified) yielded an inhibition constant (Ki) on Glutamate NMDA receptor of 13 nM.

`N[C@H](Cc1nc2cc(Cl)c(Cl)cc2n1CP(=O)(O)O)C(=O)O` returned a Ki at Glutamate NMDA receptor of 18.2 nM.

On to `CCOc1ccc2cc(CP(=O)(O)O)c(C[C@@H](N)C(=O)O)nc2c1`, for which the 50% effect level in the assay with Mus musculus [2] (ED50) was put at a dose of 150 µmol/kg. This molecule also came in with a Ki at Glutamate NMDA receptor of 29 nM.

In turn, `Cc1cc2cc(CP(=O)(O)O)c(C[C@H](N)C(=O)O)nc2cc1C` had a Ki at Glutamate NMDA receptor of 430 nM. In other words, the sub-micromolar range.

On to `Cc1cc2cc(CP(=O)(O)O)c(C[C@@H](N)C(=O)O)nc2cc1Cl`, for which, on Glutamate NMDA receptor, the Ki was found to be 4 nM. This Ki is about 110-fold lower than that of the molecule before.

Molecule `N[C@H](Cc1nc2cc(Cl)ccc2cc1CP(=O)(O)O)C(=O)O` yielded an ED50 with Mus musculus [3] of 60 µmol/kg. Moreover, the affinity at Glutamate NMDA receptor corresponds to a Ki of 20 nM.

As for `Cc1cc2cc(CP(=O)(O)O)c(C[C@@H](N)C(=O)O)nc2cc1C`, the median effective dose (ED50) in the assay with Mus musculus [3] was 42 µmol/kg. This molecule had an inhibitory constant (Ki) on Glutamate NMDA receptor of 5 nM.

`N[C@H](Cc1nc2c(Cl)cc(Cl)cc2cc1CP(=O)(O)O)C(=O)O` yielded a Ki at Glutamate NMDA receptor of 29 nM.

On to `N[C@H](Cc1nc2ncccc2cc1CP(=O)(O)O)C(=O)O`, for which the inhibition constant Ki at Glutamate NMDA receptor amounted to 74 nM.

In the case of `O=C(O)[C@@H]1C[C@H](CP(=O)(O)O)CCN1` (relative stereo) [SELFOTEL], the affinity on Glutamate NMDA receptor corresponds to a Ki of 29 nM.
